From the Kinase Knowledgebase extract (Sharma et al. 2016)
pIC50: −log10 of the molar value. Several values for one entry are separate records, joined by “and”; a condition that tells them apart may be missing. Equal values may be shown once.

Experiments:
[1] = biological target: EGFR (UniProt P00533)
[2] = biological target: EGFR (human) (UniProt P00533); details: kb
Chain of EGFR (human) (P00533 whole entry, looked up): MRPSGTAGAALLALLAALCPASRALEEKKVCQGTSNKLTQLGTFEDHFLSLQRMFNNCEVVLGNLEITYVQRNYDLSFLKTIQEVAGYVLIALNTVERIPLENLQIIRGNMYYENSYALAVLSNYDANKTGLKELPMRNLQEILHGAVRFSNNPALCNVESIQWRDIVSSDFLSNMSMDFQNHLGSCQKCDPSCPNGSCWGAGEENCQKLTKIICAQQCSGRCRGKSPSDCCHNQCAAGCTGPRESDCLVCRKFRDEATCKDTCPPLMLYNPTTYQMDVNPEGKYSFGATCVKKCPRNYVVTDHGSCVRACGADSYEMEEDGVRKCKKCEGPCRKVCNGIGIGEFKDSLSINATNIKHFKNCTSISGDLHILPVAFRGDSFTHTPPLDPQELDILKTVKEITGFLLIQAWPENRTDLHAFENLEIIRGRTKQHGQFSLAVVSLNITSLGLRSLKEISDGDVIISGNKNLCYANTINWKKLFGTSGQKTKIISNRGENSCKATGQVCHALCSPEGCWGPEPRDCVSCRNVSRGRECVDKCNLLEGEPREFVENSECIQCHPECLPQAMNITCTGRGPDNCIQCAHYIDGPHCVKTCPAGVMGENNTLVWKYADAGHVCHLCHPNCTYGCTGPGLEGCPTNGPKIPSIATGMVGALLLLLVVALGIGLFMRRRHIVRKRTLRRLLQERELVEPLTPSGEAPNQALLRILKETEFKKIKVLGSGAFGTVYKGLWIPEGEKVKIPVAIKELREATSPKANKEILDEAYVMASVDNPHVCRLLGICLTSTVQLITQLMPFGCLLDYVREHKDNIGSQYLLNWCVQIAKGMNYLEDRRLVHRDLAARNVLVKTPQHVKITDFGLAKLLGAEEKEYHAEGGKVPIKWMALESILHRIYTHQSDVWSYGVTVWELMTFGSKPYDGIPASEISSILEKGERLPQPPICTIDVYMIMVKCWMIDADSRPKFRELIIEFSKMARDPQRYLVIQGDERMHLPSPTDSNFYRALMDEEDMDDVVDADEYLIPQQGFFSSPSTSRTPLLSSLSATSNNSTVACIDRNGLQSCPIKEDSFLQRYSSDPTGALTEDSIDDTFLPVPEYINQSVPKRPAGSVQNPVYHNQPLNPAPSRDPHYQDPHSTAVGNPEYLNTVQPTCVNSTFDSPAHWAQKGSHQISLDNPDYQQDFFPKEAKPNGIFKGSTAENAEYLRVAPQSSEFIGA

Chain of EGFR (P00533 whole entry, looked up): as above

pIC50 [1] | pIC50 [2] | Compound
8.52 and 7.00 to 9.00 | 7.00 to 9.00 | COc1cc2ncnc(Nc3cccc(Cl)c3F)c2cc1OC1CCN(C(=O)CO)CC1
7.00 to 9.00 | 7.00 to 9.00 | COc1cc2ncnc(Nc3cccc(Cl)c3F)c2cc1OC1CCN(C(=O)COP(=O)(O)O)CC1
